Measured values taken from patent US9895344B2, “Treating various disorders with 7,8-dihydroxyflavone and derivatives thereof” (EMORY UNIVERSITY, priority 2008, dated 2018).

Biological target: TrkB (Rattus norvegicus, UniProt Q63604)
Assay: TrkB receptor dimerization in cotransfected HEK293 cells (GST pull-down)
Format: cell-based
Set-up: expressed in transfected cells; host or cells: HEK293
Description: BDNF is known to bind the TrkB receptor and provoke its dimerization (Barbacid, J. Neurobiol., 25:1386-1403, 1994; Klein et al, Cell, 66:395-403, 1991). To explore whether 7,8-dihydroxyflavone triggers TrkB receptor dimerization, HEK293 cells were cotransfected with GST-TrkB and HA-TrkB or HA-TrkA. The cells were then treated with BDNF or small flavone compounds (0.5 μM) for 30 minutes. The cells were harvested, washed once in PBS, and lysed in 1 ml lysis buffer (50 mM Tris, ph 7.4, 150 mM NaCl, 1 mM EDTA, 0.5% Triton X-100, 1.5 mM Na3VO4, 50 mM NaF, 10 mM sodium pyrophosphate, 10 mM sodium β-glycerophosphate, 1 mM phenylmethylsulfonyl fluoride (PMSF), 5 mg/ml aprotinin, 1 mg/ml leupeptin, 1 mg/ml pepstatin A) and centrifuged for 10 minutes at 14,000×g at 4° C. The supernatant was transferred to a fresh tube and transfected TrkB receptor was separated from the supernatant with glutathione beads, and the coprecipitated proteins were resolved on SDS-PAGE.

TrkB, sequence (Q63604 32-821): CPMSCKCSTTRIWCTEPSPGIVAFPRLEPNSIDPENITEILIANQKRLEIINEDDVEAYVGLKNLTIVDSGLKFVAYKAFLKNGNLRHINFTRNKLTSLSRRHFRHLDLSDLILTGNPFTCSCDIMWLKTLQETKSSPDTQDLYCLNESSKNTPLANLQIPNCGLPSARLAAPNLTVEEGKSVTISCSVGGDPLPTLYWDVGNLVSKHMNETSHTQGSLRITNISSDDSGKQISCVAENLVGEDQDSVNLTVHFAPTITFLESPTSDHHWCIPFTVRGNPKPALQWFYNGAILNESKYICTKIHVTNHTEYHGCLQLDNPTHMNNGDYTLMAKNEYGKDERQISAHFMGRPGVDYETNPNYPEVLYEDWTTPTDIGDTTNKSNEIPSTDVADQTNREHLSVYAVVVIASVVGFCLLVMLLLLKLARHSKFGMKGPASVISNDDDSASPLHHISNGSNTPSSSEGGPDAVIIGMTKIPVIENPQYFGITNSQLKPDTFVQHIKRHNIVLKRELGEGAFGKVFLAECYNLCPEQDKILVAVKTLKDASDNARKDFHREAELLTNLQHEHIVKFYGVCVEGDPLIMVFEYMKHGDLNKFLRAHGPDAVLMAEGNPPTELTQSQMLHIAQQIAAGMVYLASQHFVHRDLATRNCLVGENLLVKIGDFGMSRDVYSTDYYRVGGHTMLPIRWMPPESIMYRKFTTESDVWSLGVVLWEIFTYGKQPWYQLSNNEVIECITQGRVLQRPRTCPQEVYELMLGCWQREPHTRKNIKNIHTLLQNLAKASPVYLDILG
TrkB, sequence (Q63604 32-821): as above

Q: What does the source list for `O=c1cc(-c2ccccc2)oc2c(O)c(O)ccc12` [7,8-dihydroxyflavone]?
A: dimerization of TrkB with TrkA receptor (GST-TrkB and HA-TrkA cotransfected): failed to dimerize with TrkA receptor; TrkB dimerization (GST-TrkB and HA-TrkB, 0.5 μM, 30 minutes, FIG. 14): provoked TrkB dimerization to a similar manner as BDNF
